Laboratory results: ChEMBL document CHEMBL1129529, “Synthesis and antiviral activity of pyranosylphosphonic acid nucleotide analogues” (J Med Chem, 1996)

Experiments:
NHDF [1] = assay: Inhibitory activity against replication of HCMV in NHDF cells; Not active; format: functional, cell-based, Homo sapiens
NHDF [2] = assay: Cytotoxic activity against NHDF cell growth; Not active; format: functional, cell-based, Homo sapiens
MRC5 [3] = assay: Inhibitory activity against cytopathic effect of HSV-2(E 194) in MRC-5 cells; Not active; format: functional, cell-based, Homo sapiens
MRC5 [4] = assay: Inhibitory activity against cytopathic effect of HSV-2(E 194) in MRC-5 cells; format: functional, cell-based; settings: Homo sapiens
NHDF [5] = assay: Inhibitory activity against replication of HCMV in NHDF cells; format: functional, cell-based; settings: Homo sapiens
NHDF [6] = assay: Cytotoxic activity against NHDF cell growth; format: functional; settings: Homo sapiens
[7] = Selectivity index is defined as ratio between IC50(NHDF) / IC50(HCMV); format: functional

For `Cc1cn(C2C=CC(P(=O)(O)O)OC2C)c(=O)[nH]c1=O` (stereo not given), which IC50 (NHDF [1]) is on record?
The IC50 was “Not Active”.

And the IC50 (NHDF [2])?
The IC50 was “Not Active”.

What about the IC50 (MRC5 [3]) of the same molecule?
The IC50 was “Not Active”.

What does the source list for `Cc1cn([C@@H]2C=C[C@@H](P(=O)(O)O)O[C@@H]2CO)c(=O)[nH]c1=O`?
IC50 (NHDF [1]): Not Active; IC50 (NHDF [2]): Not Active; IC50 (MRC5 [3]): Not Active

For `Nc1nc(O)c2ncn(C3C=CC(P(=O)(O)O)OC3CO)c2n1` (stereo not given), which IC50 (NHDF [1]) is on record?
The IC50 was “Not Active”.

What about the IC50 (NHDF [2]) of the same molecule?
Its IC50 is “Not Active”.

What about the IC50 (MRC5 [3]) of the same molecule?
The IC50 was “Not Active”.

For `Nc1ccn([C@H]2C=C[C@@H](P(=O)(O)O)O[C@H]2CO)c(=O)n1`, which IC50 (NHDF [1]) is on record?
Its IC50 is “Not Active”.

And the IC50 (NHDF [2])?
The IC50 was “Not Active”.

And the IC50 (MRC5 [3])?
Its IC50 is “Not Active”.

Which results are given for `CC1OC(P(=O)(O)O)C=CC1n1ccc(N)nc1=O` (stereo not given)?
IC50 (MRC5 [4]): > 400 µM; IC50 (NHDF [5]): 200 µM; CC50 (NHDF [6]): > 1000 µM; Selectivity ratio [7]: > 5

What does the source list for `Nc1ccn([C@H]2CC=C(P(=O)(O)O)O[C@H]2CO)c(=O)n1`?
IC50 (NHDF [1]): Not Active; IC50 (NHDF [2]): Not Active; IC50 (MRC5 [3]): Not Active

For `Nc1ccn([C@@H]2CC=C(P(=O)(O)O)O[C@@H]2CO)c(=O)n1`, which IC50 (MRC5 [4]) is on record?
The IC50 was 90 µM.

What about the IC50 (NHDF [5]) of the same molecule?
The IC50 was 40 µM.

And the CC50 (NHDF [6])?
The CC50 was over 1000 µM.

What about the Selectivity ratio [7] of the same molecule?
The Selectivity ratio was over 25.

Which results are given for `Nc1ncnc2c1ncn2C1CC=C(P(=O)(O)O)OC1CO` (stereo not given)?
IC50 (NHDF [5]): 90 µM; CC50 (NHDF [6]): > 1000 µM; Selectivity ratio [7]: > 11

What does the source list for `CC1OC(P(=O)(O)O)=CCC1n1ccc(N)nc1=O` (stereo not given)?
IC50 (MRC5 [4]): > 400 µM; IC50 (NHDF [5]): 300 µM; CC50 (NHDF [6]): > 1000 µM; Selectivity ratio [7]: > 3.3

Which results are given for `Nc1nc(O)c2ncn([C@@H]3CC=C(P(=O)(O)O)O[C@@H]3CO)c2n1`?
IC50 (NHDF [1]): Not Active; IC50 (NHDF [2]): Not Active; IC50 (MRC5 [3]): Not Active

For `Cc1cn([C@@H]2C=C[C@H](P(=O)(O)O)O[C@@H]2CO)c(=O)[nH]c1=O`, which IC50 (NHDF [1]) is on record?
Its IC50 is “Not Active”.

What about the IC50 (NHDF [2]) of the same molecule?
Its IC50 is “Not Active”.

What about the IC50 (MRC5 [3]) of the same molecule?
Its IC50 is “Not Active”.

With `Nc1nc(O)c2ncn([C@@H]3C=C[C@H](P(=O)(O)O)O[C@@H]3CO)c2n1` as the molecule, how does the IC50 (MRC5 [4]) read?
Its IC50 is 275 µM.

And the IC50 (NHDF [5])?
Its IC50 is over 300 µM.

What about the CC50 (NHDF [6]) of the same molecule?
The CC50 was over 1000 µM.

With `Cc1cn(C2CC=C(P(=O)(O)O)OC2CO)c(=O)[nH]c1=O` (stereo not given) as the molecule, how does the IC50 (NHDF [1]) read?
Its IC50 is “Not Active”.

And the IC50 (NHDF [2])?
Its IC50 is “Not Active”.

What about the IC50 (MRC5 [3]) of the same molecule?
The IC50 was “Not Active”.

What does the source list for `Nc1ccn([C@@H]2C=C[C@H](P(=O)(O)O)O[C@@H]2CO)c(=O)n1`?
IC50 (MRC5 [4]): 85 µM; IC50 (NHDF [5]): 10 µM; CC50 (NHDF [6]): > 1000 µM; Selectivity ratio [7]: > 100

For `Cc1cn(C2CC=C(P(=O)(O)O)OC2C)c(=O)[nH]c1=O` (stereo not given), which IC50 (NHDF [1]) is on record?
Its IC50 is “Not Active”.

What about the IC50 (NHDF [2]) of the same molecule?
Its IC50 is “Not Active”.

What about the IC50 (MRC5 [3]) of the same molecule?
The IC50 was “Not Active”.

For `CC1OC(P(=O)(O)O)=CCC1n1cnc2c(N)ncnc21` (stereo not given), which IC50 (NHDF [1]) is on record?
Its IC50 is “Not Active”.

And the IC50 (NHDF [2])?
The IC50 was “Not Active”.

What about the IC50 (MRC5 [3]) of the same molecule?
Its IC50 is “Not Active”.

Which results are given for `Nc1ncnc2c1ncn2[C@@H]1C=C[C@@H](P(=O)(O)O)O[C@@H]1CO`?
IC50 (MRC5 [4]): 300 µM; IC50 (NHDF [5]): > 300 µM; CC50 (NHDF [6]): > 1000 µM

Which results are given for `Nc1ccn(C[C@@H](CO)OCP(=O)(O)O)c(=O)n1` [CIDOFOVIR]?
IC50 (MRC5 [4]): 10 µM; IC50 (NHDF [5]): 0.5 µM; CC50 (NHDF [6]): 200 µM; Selectivity ratio [7]: 400

Which IC50 (NHDF [5]) does the source give for `Nc1ccn(C2CCC(P(=O)(O)O)OC2CO)c(=O)n1` (stereo not given) here?
Its IC50 is 80 µM.

What about the CC50 (NHDF [6]) of the same molecule?
Its CC50 is over 1000 µM.

What about the Selectivity ratio [7] of the same molecule?
The Selectivity ratio was over 12.

Which IC50 (NHDF [1]) does the source give for `Nc1ncnc2c1ncn2[C@@H]1C=C[C@H](P(=O)(O)O)O[C@@H]1CO` here?
Its IC50 is “Not Active”.

What about the IC50 (NHDF [2]) of the same molecule?
Its IC50 is “Not Active”.

What about the IC50 (MRC5 [3]) of the same molecule?
The IC50 was “Not Active”.
